# Measured values from US20140328814A1, “ANTIMICROBIAL AND […] PROBIOTIC COMPOSITION, FOOD PRODUCT AND DIETARY SUPPLEMENT COMPRISING MICROORGANISM STRAIN LACTOBACILLUS […] TENSIA DSM 21380 AND METHOD FOR SUPPRESSING CONTAMINATING MICROBES IN A FOOD PRODUCT” (Oü Tervisliku Piima Biotehnoloogiate Arenduskeskus …, priority 2008, published 2014).
# Tests used:
# [1] = tested on: Lactobacillus plantarum Tensia DSM 21380; assay: Antibiotic resistance, E-test MIC; assay type: cell-based; conditions: E-test strips
# Description: Method. Lactobacillus plantarum Tensia DSM 21380 was tested using antibiotic strips of the E-test (AB Biodisk, Solna).
# [2] = tested on: L. plantarum DSM 21379; assay: Antibiotic resistance, E-test MIC, control strain; assay type: cell-based, Lactobacillus plantarum; conditions: E-test strips
Molecule,MIC L. plantarum Tensia DSM 21380 [1] [µg/mL],MIC Control strain L. plantarum DSM 21379 [2] [µg/mL]
Gentamicin,1.5,1
Quinopristin/dalfopristin,1,1
Cipro/ofloxacin,32,32
CC[C@H]1OC(=O)[C@H](C)[C@@H](O[C@H]2C[C@@](C)(OC)[C@@H](O)[C@H](C)O2)[C@H](C)[C@@H](O[C@@H]2O[C@H](C)C[C@H](N(C)C)[C@H]2O)[C@](C)(O)C[C@@H](C)C(=O)[C@H](C)[C@@H](O)[C@]1(C)O [Erytromycin],0.19,0.25
